Measurements from PMC10065799, “High-throughput profiling of sequence recognition by tyrosine kinases and SH2 domains using bacterial peptide display” (eLife, 2023).

Target: T1, c-Abl kinase domain (Mus musculus, UniProt P00520)
T1 sequence (P00520 242-493 limits assumed): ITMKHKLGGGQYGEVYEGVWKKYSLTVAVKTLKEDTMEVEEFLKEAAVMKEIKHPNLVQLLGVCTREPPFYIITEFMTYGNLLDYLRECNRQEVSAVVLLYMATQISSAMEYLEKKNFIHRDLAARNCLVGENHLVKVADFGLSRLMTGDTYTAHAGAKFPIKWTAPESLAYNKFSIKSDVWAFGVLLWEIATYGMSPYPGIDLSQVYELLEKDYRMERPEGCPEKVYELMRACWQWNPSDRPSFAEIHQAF
Test: pTyr-Var library bacterial peptide display kinase screen (enrichment scores)
Type: biochemical
Details: variant versus reference peptide

Row | Sequence | c-Abl difference (mean log2 variant - mean log2 reference)
1 | ATVQNYLPKCI [A2M_Y817_L815Q] | -0.04049
2 | LHVGFYESDVM [A2M_Y708_R704H] | -1.318
